In ChEMBL document CHEMBL5653615 (J Biol Chem, 2013):

What was measured:
[1] = target: Macrophage-stimulating protein receptor (Homo sapiens) (UniProt Q04912); experiment: Inhibition of human MST1R at 18.6 nM by HotSpot assay relative to control
[2] = target: BDNF/NT-3 growth factors receptor (Homo sapiens) (UniProt Q16620); experiment: Inhibition of human TRKB at 18.6 nM by HotSpot assay relative to control
[3] = target: Calcium/calmodulin-dependent protein kinase kinase 1 (Homo sapiens) (UniProt Q8N5S9); experiment: Inhibition of human CAMKK1 at 18.6 nM by HotSpot assay relative to control
Sequence of Calcium/calmodulin-dependent protein kinase kinase 1 (Homo sapiens) (Q8N5S9 whole entry, looked up): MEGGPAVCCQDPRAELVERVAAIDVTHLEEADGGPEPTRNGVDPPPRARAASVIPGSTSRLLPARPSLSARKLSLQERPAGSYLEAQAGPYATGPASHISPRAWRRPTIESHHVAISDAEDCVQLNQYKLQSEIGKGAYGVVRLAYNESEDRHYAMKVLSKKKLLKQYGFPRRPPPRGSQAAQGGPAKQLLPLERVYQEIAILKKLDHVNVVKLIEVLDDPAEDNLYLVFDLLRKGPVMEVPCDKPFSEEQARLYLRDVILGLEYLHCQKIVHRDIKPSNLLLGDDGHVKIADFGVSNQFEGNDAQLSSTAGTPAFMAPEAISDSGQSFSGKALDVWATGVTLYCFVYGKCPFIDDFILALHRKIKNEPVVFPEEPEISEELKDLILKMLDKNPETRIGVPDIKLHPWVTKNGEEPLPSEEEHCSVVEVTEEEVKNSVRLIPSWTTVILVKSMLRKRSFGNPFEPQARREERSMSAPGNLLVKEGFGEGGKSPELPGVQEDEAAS

[4] = target: T1, Serine/threonine-protein kinase D3 (Homo sapiens) (UniProt O94806); experiment: Inhibition of human PRKD3 at 1.82 nM by HotSpot assay relative to control
T1 sequence (whole entry): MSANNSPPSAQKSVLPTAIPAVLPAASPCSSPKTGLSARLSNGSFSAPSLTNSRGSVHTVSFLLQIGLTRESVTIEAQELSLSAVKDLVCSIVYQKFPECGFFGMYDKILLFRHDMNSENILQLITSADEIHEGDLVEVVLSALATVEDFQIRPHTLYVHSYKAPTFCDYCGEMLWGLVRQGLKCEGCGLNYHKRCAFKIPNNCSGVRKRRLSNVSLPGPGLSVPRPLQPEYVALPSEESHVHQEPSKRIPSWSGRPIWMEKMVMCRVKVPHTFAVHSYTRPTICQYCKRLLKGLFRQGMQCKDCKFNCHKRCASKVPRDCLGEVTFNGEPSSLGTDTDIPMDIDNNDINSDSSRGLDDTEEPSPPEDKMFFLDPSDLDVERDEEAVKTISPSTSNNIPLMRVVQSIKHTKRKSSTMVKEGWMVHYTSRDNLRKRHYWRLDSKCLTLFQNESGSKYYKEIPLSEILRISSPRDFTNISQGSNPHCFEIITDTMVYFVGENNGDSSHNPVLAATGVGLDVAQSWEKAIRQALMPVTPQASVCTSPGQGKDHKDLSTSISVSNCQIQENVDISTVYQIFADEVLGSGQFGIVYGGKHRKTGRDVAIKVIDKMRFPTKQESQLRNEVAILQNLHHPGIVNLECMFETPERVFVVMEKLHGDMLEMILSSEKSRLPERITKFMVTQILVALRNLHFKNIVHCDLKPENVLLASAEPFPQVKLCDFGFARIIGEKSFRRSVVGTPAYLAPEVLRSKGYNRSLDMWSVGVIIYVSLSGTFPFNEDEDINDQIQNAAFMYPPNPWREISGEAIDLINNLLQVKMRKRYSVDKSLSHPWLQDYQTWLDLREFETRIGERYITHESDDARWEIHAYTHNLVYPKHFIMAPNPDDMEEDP

[5] = target: T2, Ephrin type-B receptor 2 (Homo sapiens) (UniProt P29323); experiment: Inhibition of human EPHB2 at 1.82 nM by HotSpot assay relative to control
T2 sequence (whole entry): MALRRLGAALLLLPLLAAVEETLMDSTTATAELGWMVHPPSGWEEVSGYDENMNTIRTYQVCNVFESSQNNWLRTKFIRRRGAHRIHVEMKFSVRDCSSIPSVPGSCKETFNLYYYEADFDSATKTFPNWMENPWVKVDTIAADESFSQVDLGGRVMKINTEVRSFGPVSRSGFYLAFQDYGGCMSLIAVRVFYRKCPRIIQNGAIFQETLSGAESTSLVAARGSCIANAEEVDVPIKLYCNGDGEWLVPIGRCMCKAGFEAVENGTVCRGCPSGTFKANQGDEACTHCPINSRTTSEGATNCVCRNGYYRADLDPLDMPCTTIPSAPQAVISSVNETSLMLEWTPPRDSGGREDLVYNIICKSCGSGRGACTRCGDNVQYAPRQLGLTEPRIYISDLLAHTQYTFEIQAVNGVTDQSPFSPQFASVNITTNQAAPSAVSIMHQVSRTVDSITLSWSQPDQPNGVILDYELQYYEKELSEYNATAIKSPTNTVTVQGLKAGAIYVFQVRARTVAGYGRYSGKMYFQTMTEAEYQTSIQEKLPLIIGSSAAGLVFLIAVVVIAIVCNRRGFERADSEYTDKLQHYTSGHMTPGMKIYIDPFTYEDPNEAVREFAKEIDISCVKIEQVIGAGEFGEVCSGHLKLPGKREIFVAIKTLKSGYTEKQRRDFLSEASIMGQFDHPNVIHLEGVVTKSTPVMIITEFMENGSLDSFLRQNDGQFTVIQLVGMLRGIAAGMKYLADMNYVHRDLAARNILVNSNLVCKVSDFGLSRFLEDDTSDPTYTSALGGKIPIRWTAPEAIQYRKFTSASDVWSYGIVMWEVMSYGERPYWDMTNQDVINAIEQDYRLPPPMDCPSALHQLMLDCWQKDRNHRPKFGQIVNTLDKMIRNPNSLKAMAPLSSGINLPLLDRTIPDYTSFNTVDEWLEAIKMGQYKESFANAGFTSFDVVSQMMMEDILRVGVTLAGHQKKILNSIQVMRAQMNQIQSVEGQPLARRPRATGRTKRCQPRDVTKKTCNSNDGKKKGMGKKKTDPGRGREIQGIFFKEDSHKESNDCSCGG

[6] = target: T3, MAP/microtubule affinity-regulating kinase 4 (Homo sapiens) (UniProt Q96L34); experiment: Inhibition of human MARK4 at 1.82 nM by HotSpot assay relative to control
T3 sequence (whole entry): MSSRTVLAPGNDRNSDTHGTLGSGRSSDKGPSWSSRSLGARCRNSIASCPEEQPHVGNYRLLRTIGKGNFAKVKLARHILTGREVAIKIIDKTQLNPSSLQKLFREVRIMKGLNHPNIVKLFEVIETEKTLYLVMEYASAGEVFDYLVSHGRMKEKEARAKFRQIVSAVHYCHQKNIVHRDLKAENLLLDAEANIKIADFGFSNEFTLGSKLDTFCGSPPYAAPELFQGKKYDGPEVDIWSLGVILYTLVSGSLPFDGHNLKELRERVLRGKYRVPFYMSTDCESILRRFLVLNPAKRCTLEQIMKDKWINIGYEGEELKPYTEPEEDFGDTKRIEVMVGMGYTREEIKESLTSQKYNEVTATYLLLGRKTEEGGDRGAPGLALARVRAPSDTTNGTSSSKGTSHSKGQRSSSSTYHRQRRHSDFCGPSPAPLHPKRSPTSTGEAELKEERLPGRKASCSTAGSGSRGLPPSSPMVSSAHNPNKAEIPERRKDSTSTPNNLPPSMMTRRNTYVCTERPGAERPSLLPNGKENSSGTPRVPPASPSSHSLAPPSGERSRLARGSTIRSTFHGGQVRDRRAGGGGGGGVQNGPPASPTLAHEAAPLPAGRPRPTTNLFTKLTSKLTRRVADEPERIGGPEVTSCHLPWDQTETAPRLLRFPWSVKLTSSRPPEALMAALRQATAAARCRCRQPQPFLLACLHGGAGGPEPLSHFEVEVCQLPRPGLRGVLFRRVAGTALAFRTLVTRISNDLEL

Sequence of BDNF/NT-3 growth factors receptor (Homo sapiens) (Q16620 32-822 limits assumed): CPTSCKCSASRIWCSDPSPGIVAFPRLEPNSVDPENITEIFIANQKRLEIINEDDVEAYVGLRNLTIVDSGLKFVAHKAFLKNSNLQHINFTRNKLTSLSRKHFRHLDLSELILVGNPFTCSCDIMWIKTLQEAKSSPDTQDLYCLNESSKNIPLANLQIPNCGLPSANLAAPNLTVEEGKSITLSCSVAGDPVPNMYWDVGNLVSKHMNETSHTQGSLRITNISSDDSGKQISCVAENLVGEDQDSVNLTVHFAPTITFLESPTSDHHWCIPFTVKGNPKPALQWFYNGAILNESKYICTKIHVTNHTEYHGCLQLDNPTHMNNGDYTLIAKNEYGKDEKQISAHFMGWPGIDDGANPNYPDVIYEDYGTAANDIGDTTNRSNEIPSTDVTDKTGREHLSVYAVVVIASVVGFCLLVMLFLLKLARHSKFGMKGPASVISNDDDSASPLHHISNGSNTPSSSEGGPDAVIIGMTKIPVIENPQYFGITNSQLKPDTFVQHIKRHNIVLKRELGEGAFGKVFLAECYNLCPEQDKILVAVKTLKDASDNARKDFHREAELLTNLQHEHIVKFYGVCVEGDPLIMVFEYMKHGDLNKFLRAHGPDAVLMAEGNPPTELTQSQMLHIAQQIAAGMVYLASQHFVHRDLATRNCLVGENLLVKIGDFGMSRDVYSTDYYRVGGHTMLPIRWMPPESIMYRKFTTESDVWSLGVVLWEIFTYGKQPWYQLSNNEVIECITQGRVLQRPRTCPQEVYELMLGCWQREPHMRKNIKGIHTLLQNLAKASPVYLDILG
Sequence of Macrophage-stimulating protein receptor (Homo sapiens) (Q04912 25-304 limits assumed): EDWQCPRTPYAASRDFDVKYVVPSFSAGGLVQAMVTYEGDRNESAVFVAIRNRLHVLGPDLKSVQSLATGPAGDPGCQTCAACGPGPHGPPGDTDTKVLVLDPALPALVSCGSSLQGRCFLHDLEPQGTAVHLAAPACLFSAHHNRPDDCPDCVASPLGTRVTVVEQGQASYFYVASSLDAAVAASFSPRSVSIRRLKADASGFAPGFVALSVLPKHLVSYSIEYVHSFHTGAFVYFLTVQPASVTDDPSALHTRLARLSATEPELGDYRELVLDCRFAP
Sequence of Macrophage-stimulating protein receptor (Homo sapiens) (Q04912 310-1400 limits assumed): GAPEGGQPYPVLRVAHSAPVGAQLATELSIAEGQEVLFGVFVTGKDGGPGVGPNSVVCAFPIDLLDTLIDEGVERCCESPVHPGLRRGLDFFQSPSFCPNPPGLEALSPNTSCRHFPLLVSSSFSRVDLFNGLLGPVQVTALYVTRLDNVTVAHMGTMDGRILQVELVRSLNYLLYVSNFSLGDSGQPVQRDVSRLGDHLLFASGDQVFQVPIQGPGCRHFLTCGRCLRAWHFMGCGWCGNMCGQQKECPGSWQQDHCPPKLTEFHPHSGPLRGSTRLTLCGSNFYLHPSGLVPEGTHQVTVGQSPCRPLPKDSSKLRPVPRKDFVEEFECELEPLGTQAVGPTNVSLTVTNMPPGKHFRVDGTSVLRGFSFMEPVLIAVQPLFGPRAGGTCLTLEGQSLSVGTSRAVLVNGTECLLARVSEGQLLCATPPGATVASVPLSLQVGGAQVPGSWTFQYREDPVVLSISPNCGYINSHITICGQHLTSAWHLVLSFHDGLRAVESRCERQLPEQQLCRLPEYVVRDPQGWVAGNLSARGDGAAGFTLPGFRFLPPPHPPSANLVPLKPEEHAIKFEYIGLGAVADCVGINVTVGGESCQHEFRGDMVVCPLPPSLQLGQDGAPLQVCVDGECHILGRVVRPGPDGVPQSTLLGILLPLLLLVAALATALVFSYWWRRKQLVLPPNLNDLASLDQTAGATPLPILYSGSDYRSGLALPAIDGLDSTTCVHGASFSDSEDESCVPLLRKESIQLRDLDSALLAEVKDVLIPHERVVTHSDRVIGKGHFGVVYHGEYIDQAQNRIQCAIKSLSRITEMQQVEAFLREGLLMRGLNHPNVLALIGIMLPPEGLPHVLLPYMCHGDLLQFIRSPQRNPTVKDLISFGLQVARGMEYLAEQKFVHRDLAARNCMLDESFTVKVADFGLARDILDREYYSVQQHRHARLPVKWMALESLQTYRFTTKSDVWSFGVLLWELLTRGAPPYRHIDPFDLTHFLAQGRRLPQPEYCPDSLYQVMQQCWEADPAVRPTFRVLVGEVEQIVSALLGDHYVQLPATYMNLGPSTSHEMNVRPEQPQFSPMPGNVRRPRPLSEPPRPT

inhibition [1] [%] | inhibition [2] [%] | inhibition [3] [%] | inhibition [4] [%] | inhibition [5] [%] | inhibition [6] [%] | Structure (SMILES)
0.1 | -7.44 | 5.54 |  |  |  | C[C@]1(O)C[C@@H](c2nc(-c3ccc4ccc(-c5ccccc5)nc4c3)c3c(N)nccn32)C1
 |  |  | 2.81 | -7.51 | 2.64 | C[C@@]1(C(=O)Nc2ccc(F)nc2)CCCN1c1nc(Nc2cc(C3CC3)n[nH]2)c2cccn2n1
